Data: article PMC4496498, “Radiosynthesis, In Vivo Biological Evaluation, and Imaging of Brain Lesions with [^123I]-CLINME, a New SPECT Tracer for the Translocator Protein” (Disease Markers, 2015)
Where “and” joins values, the source holds several entries; their conditions need not be identical. Equal entries are not always repeated. Where two headings read alike, the source gives them in different places.

How the values were obtained:
[1] = tested on: TPSO; conditions: cited from earlier work
[2] = molecular target: T1, TSPO (Rattus norvegicus, UniProt P16257); set-up: from tissue; method as in PMID 17680643; conditions: same animal model; cited from earlier work
[3] = tested on: TPSO; conditions: cited from earlier work; remark: listed apart in the source
[4] = Metabolite studies (radio-TLC of tissue and plasma extracts); type: in vivo, SD rats; conditions: rats
Protocol: Groups of male SD rats were injected with [^123I]-CLINME (7.4 MBq in 0.1 mL of 0.9% saline) and sacrificed at 15, 60, and 180 min p.i. Adrenals, kidney, heart, and brain were quickly excised.
Tissue fractions (200 mg) were treated with acetonitrile (2 mL) and homogenised, and the mixture was centrifuged at 2,000 rpm. The supernatant was removed and the pellet was treated for a second time, as above and the combined supernatants concentrated to 50 μL. Plasma (0.2 mL) separated from blood was extracted with acetonitrile and concentrated. The concentrated extracts were applied onto silica gel C18 plates with a preconcentration zone (Merck, Darmstadt, Germany) and developed with ethyl acetate. The radioactivity distribution was measured using a static radiochromatogram analyser (Berthold Co.).

[5] = In vivo biodistribution of [^123I]-CLINME; set-up: species or system Sprague-Dawley (SD) rats; conditions: for Biodistribution, Adrenals / Biodistribution, Blood / Biodistribution, Heart / Biodistribution, Kidney / Biodistribution, Liver / Biodistribution, Lungs / Biodistribution, Olfactory bulbs / Biodistribution, Spleen / Biodistribution, Thyroid / Biodistribution, Brain: SD male rats, i.v.; for Biodistribution, Brain: remainder of the brain
Protocol: No carrier added [^123I]-CLINME (0.7 MBq, 10 pmoles) dissolved in 0.9% saline (0.1 mL) was administered to 8–10-week-old male Sprague-Dawley (SD) rats (n = 4–6) via tail vein injection in a volume of 0.1 mL. At 5, 15, and 30 min and 1, 3, and 6 h after injection (p.i.) of the [^123I]-CLINME, the rats were sacrificed by CO2 administration followed by cervical fracture. […] Samples of organs and tissues were weighed and the radioactivity was measured using an automated γ-counter. The percent of injected dose (%ID) was calculated by comparison to a diluted standard solution derived from the initial injected sample. Radioactivity concentrations were expressed as percent of injected dose per gram of wet tissue (% ID/g).

[6] = molecular target: T1, TSPO; assay: SPECT imaging of unilateral excitotoxic (AMPA) striatum lesion; type: in vivo, SD rats; set-up: from tissue; host or cells: male Sprague-Dawley rats: peripheral organs and brain in vivo; AMPA-lesioned striatum; brain sections; conditions: AMPA lesion rat model
Protocol: Lesioning was performed by stereotaxically injecting 7.5 nmol α-amino-3-hydroxy-5-methylisoxazole-4-propionic acid (AMPA) unilaterally into the striatum. Male SD rats (317 ± 56 g) were anaesthetised with inhaled isoflurane in O2 (5% induction, ~2% maintenance thereafter) and positioned in a stereotaxic frame (Stoelting Co., USA). A 1.5 cm incision was made in the scalp to reveal the skull surface and a burr hole was drilled over the injection site. […] Following the injection, the needle was left in situ for a further 5 min to allow the fluid to disperse. After the needle was withdrawn, the incision was sutured and cleansed. Animals were given a week to recover prior to imaging. Analgesia was provided by subcutaneous administration of 0.05 mg/Kg buprenorphine.
Two hours prior to [^123I]-CLINME administration, thyroid blocking was performed with an intraperitoneal injection of 2 mg/Kg potassium iodide. [^123I]-CLINME (74–148 MBq in 0.1 mL of 0.9% saline, S.A. > 80 GBq/μmol) was injected via the tail vein. […]
SPECT volumes were reconstructed with an Ordered Subset Expectation Maximisation iterative reconstruction algorithm using 3 iterations and 8 subsets. […] At each of the time points p.i., the ratio of the mean activity in the lesion VOI compared to the contralateral control VOI was determined. […]

[7] = molecular target: T1, TSPO; assay: In vitro autoradiography with [^125I]-CLINME on lesioned brain tissue; type: binding, SD rats; set-up: from tissue; host or cells: male Sprague-Dawley rats: peripheral organs and brain in vivo; AMPA-lesioned striatum; brain sections; conditions: autoradiography, 16 nM [^125I]-CLINME
[8] = molecular target: T1, TSPO; conditions: competing drug 1 mg/Kg i.v. 5 min prior to tracer, rats, 30 min p.i.
Protocol: The saturation effect of [^123I]-CLINME uptake was studied in competition experiments by injecting CLINME (1 mg/Kg), 5 min prior to [^123I]-CLINME (0.7 MBq, 10 pmoles in 0.1 mL of 0.9% saline), via the tail vein, to 8–10-week-old male SD rats.
The drugs were dissolved in dimethyl sulfoxide/saline (1 : 5) and injected intravenously 5 min prior to [^123I]-CLINME. Groups of rats (n = 3-4) were sacrificed by CO2 administration followed by cervical fracture 30 min after administration of [^123I]-CLINME and peripheral organs (liver, spleen, lung, heart, kidney, and adrenals), blood, olfactory bulbs, and the remainder of the brain were removed. The radioactivity concentrations were calculated as described previously. Results were analysed by one-way analysis of variance (ANOVA) followed by Tukey's post hoc test for comparing the tissue radioactivity concentrations in the treated animals (n = 3-4) and in the controls (n = 6). The criterion for significance was P < 0.05.

CCN(CC)C(=O)Cc1c(-c2ccc(I)cc2)nc2ccc(Cl)cn12 [CLINDE]
selectivity for the TPSO over the CBR [1]: 200 fold

CCN([11CH3])C(=O)Cc1c(-c2ccc(I)cc2)nc2ccc(Cl)cn12 [[^11C]-CLINME]
ratio lesion versus contralateral striatum, PET [2]: 2.14 ± 0.09

CCC(C)N([11CH3])C(=O)c1cc2ccccc2c(-c2ccccc2Cl)n1 (stereo not drawn) [[^11C]-PK11195]
ratio lesion versus contralateral striatum, PET [2]: 1.62 ± 0.05

COc1ccc(OCC[18F])c(CN(C(C)=O)c2cc(F)ccc2Oc2ccccc2)c1 [[^18F]FE-DAA1106]
ratio of uptake olfactory bulbs versus rest of brain [3]: 3.5

CCN(CC)C(=O)Cc1c(-c2ccc([123I])cc2)nc2ccc(Cl)cn12 [[^123I]-CLINDE]
ratio of uptake olfactory bulbs versus rest of brain ([3]; at 8 h): 6

CCN(C)C(=O)Cc1c(-c2ccc([123I])cc2)nc2ccc(Cl)cn12 [[^123I]-CLINME]
unchanged radiotracer in brain tissue [4]: more than 95% | unchanged tracer in extracted activity, plasma ([4]; 15 min p.i.): 15% | unchanged tracer in extracted activity, plasma ([4]; 1 h p.i.): 5% | unchanged tracer in extracted activity, plasma ([4]; 3 h p.i.): 2% | unchanged [^123I]-CLINME in extractable radioactivity, adrenals, kidney, and heart ([4]; constant over the three hours studied): more than 95% | Biodistribution, Adrenals ([5]; 5 min p.i.): 2.89 ± 0.48 %ID/g | Biodistribution, Blood ([5]; 5 min p.i.): 0.18 ± 0.02 %ID/g | Biodistribution, Heart ([5]; 5 min p.i.): 3.28 ± 0.30 %ID/g | Biodistribution, Kidney ([5]; 5 min p.i.): 1.82 ± 0.20 %ID/g | Biodistribution, Liver ([5]; 5 min p.i.): 0.70 ± 0.10 %ID/g | Biodistribution, Lungs ([5]; 5 min p.i.): 7.88 ± 0.62 %ID/g | Biodistribution, Olfactory bulbs ([5]; 5 min p.i.): 0.38 ± 0.03 %ID/g | Biodistribution, Spleen ([5]; 5 min p.i.): 2.00 ± 0.55 %ID/g | Biodistribution, Thyroid ([5]; 5 min p.i.): 4.62 ± 2.17 %ID/g | Biodistribution, Brain ([5]; 5 min p.i.): 0.20 ± 0.02 %ID/g | Biodistribution, Adrenals ([5]; 15 min p.i.): 4.71 ± 0.26 %ID/g | Biodistribution, Blood ([5]; 15 min p.i.): 0.09 ± 0.01 %ID/g | Biodistribution, Heart ([5]; 15 min p.i.): 3.53 ± 0.23 %ID/g | Biodistribution, Kidney ([5]; 15 min p.i.): 1.75 ± 0.07 %ID/g | Biodistribution, Liver ([5]; 15 min p.i.): 0.68 ± 0.07 %ID/g | Biodistribution, Lungs ([5]; 15 min p.i.): 3.53 ± 0.44 %ID/g | Biodistribution, Olfactory bulbs ([5]; 15 min p.i.): 0.28 ± 0.04 %ID/g | Biodistribution, Spleen ([5]; 15 min p.i.): 2.65 ± 0.40 %ID/g | Biodistribution, Thyroid ([5]; 15 min p.i.): 5.62 ± 1.24 %ID/g | Biodistribution, Brain ([5]; 15 min p.i.): 0.10 ± 0.01 %ID/g | Biodistribution, Adrenals ([5]; 30 min p.i.): 7.55 ± 1.38 %ID/g | Biodistribution, Blood ([5]; 30 min p.i.): 0.08 ± 0.01 %ID/g | Biodistribution, Heart ([5]; 30 min p.i.): 3.32 ± 0.31 %ID/g | Biodistribution, Kidney ([5]; 30 min p.i.): 1.78 ± 0.18 %ID/g | Biodistribution, Liver ([5]; 30 min p.i.): 0.51 ± 0.07 %ID/g | Biodistribution, Lungs ([5]; 30 min p.i.): 2.45 ± 0.30 %ID/g | Biodistribution, Olfactory bulbs ([5]; 30 min p.i.): 0.34 ± 0.01 %ID/g | Biodistribution, Spleen ([5]; 30 min p.i.): 2.21 ± 0.15 %ID/g | Biodistribution, Thyroid ([5]; 30 min p.i.): 7.37 ± 2.14 %ID/g | Biodistribution, Brain ([5]; 30 min p.i.): 0.08 ± 0.00 %ID/g | Biodistribution, Adrenals ([5]; 1 hour p.i.): 6.77 ± 0.54 %ID/g | Biodistribution, Blood ([5]; 1 hour p.i.): 0.06 ± 0.00 %ID/g | Biodistribution, Kidney ([5]; 1 hour p.i.): 1.16 ± 0.18 %ID/g | Biodistribution, Liver ([5]; 1 hour p.i.): 0.42 ± 0.07 %ID/g | Biodistribution, Lungs ([5]; 1 hour p.i.): 1.68 ± 0.10 %ID/g | Biodistribution, Olfactory bulbs ([5]; 1 hour p.i.): 0.26 ± 0.05 %ID/g | Biodistribution, Spleen ([5]; 1 hour p.i.): 1.76 ± 0.12 %ID/g | Biodistribution, Thyroid ([5]; 1 hour p.i.): 6.46 ± 2.26 %ID/g | Biodistribution, Brain ([5]; 1 hour p.i.): 0.06 ± 0.01 %ID/g | Biodistribution, Adrenals ([5]; 3 hours p.i.): 6.65 ± 0.56 %ID/g | Biodistribution, Blood ([5]; 3 hours p.i.): 0.04 ± 0.00 %ID/g | Biodistribution, Heart ([5]; 3 hours p.i.): 1.28 ± 0.13 %ID/g | Biodistribution, Kidney ([5]; 3 hours p.i.): 0.70 ± 0.05 %ID/g | Biodistribution, Liver ([5]; 3 hours p.i.): 0.23 ± 0.01 %ID/g | Biodistribution, Lungs ([5]; 3 hours p.i.): 0.95 ± 0.12 %ID/g | Biodistribution, Olfactory bulbs ([5]; 3 hours p.i.): 0.25 ± 0.01 %ID/g | Biodistribution, Spleen ([5]; 3 hours p.i.): 1.02 ± 0.14 %ID/g | Biodistribution, Thyroid ([5]; 3 hours p.i.): 3.41 ± 1.10 %ID/g | Biodistribution, Brain ([5]; 3 hours p.i.): 0.03 ± 0.00 %ID/g | Biodistribution, Adrenals ([5]; 6 hours p.i.): 8.34 ± 0.71 %ID/g | Biodistribution, Blood ([5]; 6 hours p.i.): 0.03 ± 0.00 %ID/g | Biodistribution, Heart ([5]; 6 hours p.i.): 0.72 ± 0.14 %ID/g | Biodistribution, Kidney ([5]; 6 hours p.i.): 0.51 ± 0.09 %ID/g | Biodistribution, Liver ([5]; 6 hours p.i.): 0.21 ± 0.05 %ID/g | Biodistribution, Lungs ([5]; 6 hours p.i.): 0.68 ± 0.08 %ID/g | Biodistribution, Olfactory bulbs ([5]; 6 hours p.i.): 0.17 ± 0.05 %ID/g | Biodistribution, Spleen ([5]; 6 hours p.i.): 0.67 ± 0.09 %ID/g | Biodistribution, Thyroid ([5]; 6 hours p.i.): 4.11 ± 1.15 %ID/g | Biodistribution, Brain ([5]; 6 hours p.i.): 0.02 ± 0.00 %ID/g | ratio of uptake olfactory bulbs to blood ([5]; rats): 6 | plateau of activity in the adrenals ([5]; rats, after 30 min to 6 h p.i.): ≈ 7.5 % ID/g | peak activity in heart ([5]; rats, at 5 or 15 min p.i.): 3.5 % ID/g | peak activity in kidney ([5]; rats, at 5 or 15 min p.i.): 1.8 % ID/g | peak activity in liver ([5]; rats, at 5 or 15 min p.i.): 0.7 % ID/g | peak activity in lung ([5]; rats, at 5 or 15 min p.i.): 7.9 % ID/g | peak activity in spleen ([5]; rats, at 5 or 15 min p.i.): 2.7 % ID/g | ratio of uptake olfactory bulbs versus remainder of the brain ([5]; rats, at 5 min): 2 | uptake in the thyroid ([5]; rats, at 3 h, constant till 6 h): 4% | activity in liver, spleen, kidney, heart, and lung ([5]; rats, at 6 h): less than 0.7 % ID/g | ratio of uptake olfactory bulbs versus remainder of the brain ([5]; rats, at 6 h): 8 | uptake in the thyroid ([5]; rats, increase from 5 min to 1 h): 4–7% | concentration in blood ([5]; rats, throughout the time of measurement): < 0.18 % ID/g | mean ratio ± SD (ipsilateral : contralateral) striatum uptake, SPECT ([6]; 60 min p.i.): 2.2 and 2.18 ± 0.89 | mean ratio ± SD (ipsilateral : contralateral) striatum uptake, SPECT ([6]; 120 min p.i.): 1.86 ± 0.51

CCN(C)C(=O)Cc1c(-c2ccc([125I])cc2)nc2ccc(Cl)cn12 [[^125I]-CLINME]
radioligand binding in the lesioned striatum compared to the contralateral one [7]: significantly increased

CCCN(CCC)C(=O)Cc1c(-c2ccc(Cl)cc2)nc2ccc(Cl)cn12 [alpidem]
selectivity for the TPSO over the CBR [1]: 20 fold

Ro 5-4864
reduction of uptake of [^123I]-CLINME in the blood [8]: not significant | decrease of [^123I]-CLINME uptake in the heart ([8]; vs controls): 77% | decrease of [^123I]-CLINME uptake in the kidney ([8]; vs controls): 68% | decrease of [^123I]-CLINME uptake in the lungs ([8]; vs controls): 62% | decrease of [^123I]-CLINME uptake in the olfactory bulbs ([8]; vs controls): nonsignificant reduction | decrease of [^123I]-CLINME uptake in the remainder of the brain ([8]; vs controls): 23% | increase of [^123I]-CLINME concentration in the adrenals ([8]; vs controls): 73%
